Source: ChEMBL document CHEMBL1201862, “PubChem BioAssay data set” (2004)
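Following 48 hours of exposure in 96-well plates, responses at five concentrations were used to interpolate endpoints linearly. GI50 is the concentration that inhibits growth by half.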 Active and inactive are the calls of the source. Cut-off read from the data, not from the text of the source: active = GI50 up to about 1.1 µM and inactive = higher.

How the values were obtained:
Test in all cases: DTP human tumour cell line panel, 48 h
[1] = system: HT-29
[2] = system: RXF 393
[3] = system: SR
[4] = system: SF-539
[5] = system: MOLT-4
[6] = system: SK-MEL-28
[7] = system: UACC-62
[8] = system: NCI-H226
[9] = system: SK-MEL-5
[10] = system: OVCAR-8
[11] = system: LOX IMVI
[12] = system: UO-31
[13] = system: KM12
[14] = system: 786-0
[15] = system: OVCAR-4
[16] = system: UACC-257
[17] = system: SK-OV-3
[18] = system: RPMI-8226

Row | SMILES | GI50 [1] | GI50 [2] | GI50 [3] | GI50 [4] | GI50 [5] | GI50 [6] | GI50 [7] | GI50 [8] | GI50 [9] | GI50 [10] | GI50 [11] | GI50 [12] | GI50 [13] | GI50 [14] | GI50 [15] | GI50 [16] | GI50 [17] | GI50 [18]
1 | Cc1cc(C)nc(NS(=O)(=O)c2ccc(NC(=O)c3cccn4c(=O)c5ccccc5nc34)cc2)n1 | 40.2 µM (inactive) | 23.9 µM (inactive) | 24 µM (inactive) | 38.5 µM (inactive) | 23.8 µM (inactive) | 38.5 µM (inactive) | 20.5 µM (inactive) | 37.6 µM (inactive) | 37.9 µM (inactive) | 27.7 µM (inactive) | 29.1 µM (inactive) | 27.5 µM (inactive) | 41.1 µM (inactive) | > 100 µM (inactive) | 27.9 µM (inactive) | – | – | –
2 | O=C(c1cccc2ccccc12)N1CCC(C2CCN(C(=O)c3cccc4ccccc34)CC2)CC1 | > 100 µM (inactive) | > 100 µM (inactive) | > 100 µM (inactive) | > 100 µM (inactive) | > 100 µM (inactive) | > 100 µM (inactive) | > 100 µM (inactive) | > 100 µM (inactive) | > 100 µM (inactive) | > 100 µM (inactive) | > 100 µM (inactive) | > 100 µM (inactive) | > 100 µM (inactive) | > 100 µM (inactive) | – | > 100 µM (inactive) | > 100 µM (inactive) | 91.8 µM (inactive)
3 | CC(=O)N1CCN(C=S)CC1 | > 100 µM (inactive) | > 100 µM (inactive) | > 100 µM (inactive) | > 100 µM (inactive) | > 100 µM (inactive) | > 100 µM (inactive) | > 100 µM (inactive) | > 100 µM (inactive) | > 100 µM (inactive) | > 100 µM (inactive) | > 100 µM (inactive) | > 100 µM (inactive) | > 100 µM (inactive) | > 100 µM (inactive) | > 100 µM (inactive) | > 100 µM (inactive) | > 100 µM (inactive) | > 100 µM (inactive)
4 | N#CSCc1nc2ccc(Cl)cc2c(-c2ccccc2)[n+]1[O-] | 20 µM (inactive) | 12.7 µM (inactive) | 24.9 µM (inactive) | > 10 µM (inactive) | 14.6 µM (inactive) | 14.5 µM (inactive) | 19.2 µM (inactive) | 33.7 µM (inactive) | – | 19.7 µM (inactive) | 18 µM (inactive) | 18.7 µM (inactive) | 22 µM (inactive) | 18.2 µM (inactive) | 25.5 µM (inactive) | 42.3 µM (inactive) | – | 25.3 µM (inactive)
5 | O=C1CC(O)C=C1Nc1ccc(Cl)cc1 (centres undefined) | 13.7 µM (inactive) | 40.5 µM (inactive) | 19.1 µM (inactive) | 61.7 µM (inactive) | 16.4 µM (inactive) | 56.2 µM (inactive) | 0.879 µM (active) | > 100 µM (inactive) | 30.5 µM (inactive) | 49.2 µM (inactive) | 25.4 µM (inactive) | 31.3 µM (inactive) | 13.4 µM (inactive) | 58.2 µM (inactive) | 60.1 µM (inactive) | 52.4 µM (inactive) | > 100 µM (inactive) | –
6 | c1ccc2c(c1)N=C(c1cccc3ccccc13)CC(c1cccc3ccccc13)S2 (centres undefined) | 3.33 µM (inactive) | 3.48 µM (inactive) | 2.07 µM (inactive) | 4.92 µM (inactive) | 2.24 µM (inactive) | 7.36 µM (inactive) | 5.21 µM (inactive) | 9.84 µM (inactive) | 8.95 µM (inactive) | 2.96 µM (inactive) | 3.48 µM (inactive) | 11.2 µM (inactive) | 2.91 µM (inactive) | 3.8 µM (inactive) | 3.68 µM (inactive) | 14.7 µM (inactive) | 10.3 µM (inactive) | 1.9 µM (inactive)
7 | COc1ccc(/C=C/c2cc(OC)c(OC)c(OC)c2)cc1OC | > 72.8 µM (inactive) | > 63 µM (inactive) | > 100 µM (inactive) | > 86.1 µM (inactive) | > 100 µM (inactive) | 55.6 µM (inactive) | > 80.7 µM (inactive) | > 100 µM (inactive) | > 74.5 µM (inactive) | > 100 µM (inactive) | > 100 µM (inactive) | > 92.7 µM (inactive) | > 100 µM (inactive) | > 76.9 µM (inactive) | > 100 µM (inactive) | > 100 µM (inactive) | > 100 µM (inactive) | > 100 µM (inactive)
8 | CCOC(=O)c1ccc(C)c(/N=N/N(C)C)c1 | > 100 µM (inactive) | > 100 µM (inactive) | 93.1 µM (inactive) | > 100 µM (inactive) | > 100 µM (inactive) | > 100 µM (inactive) | > 100 µM (inactive) | > 100 µM (inactive) | > 100 µM (inactive) | > 100 µM (inactive) | > 100 µM (inactive) | 79.8 µM (inactive) | > 100 µM (inactive) | > 100 µM (inactive) | > 100 µM (inactive) | > 100 µM (inactive) | > 100 µM (inactive) | > 100 µM (inactive)
9 | CCC(C)OC(=O)C1C2CCC(O2)C1C(=O)O (centres undefined) | > 43.4 µM (inactive) | > 41.5 µM (inactive) | 19.2 µM (inactive) | 99.8 µM (inactive) | > 87.1 µM (inactive) | > 100 µM (inactive) | > 100 µM (inactive) | > 100 µM (inactive) | > 100 µM (inactive) | > 70 µM (inactive) | > 41.9 µM (inactive) | > 100 µM (inactive) | > 100 µM (inactive) | > 44.2 µM (inactive) | > 100 µM (inactive) | > 70.5 µM (inactive) | > 100 µM (inactive) | > 48.3 µM (inactive)
10 | O=C(CC1(O)C(=O)Nc2ccccc21)c1ccncc1 (centres undefined) | > 100 µM (inactive) | > 100 µM (inactive) | > 100 µM (inactive) | > 100 µM (inactive) | > 100 µM (inactive) | > 100 µM (inactive) | > 100 µM (inactive) | > 100 µM (inactive) | > 100 µM (inactive) | – | > 100 µM (inactive) | > 100 µM (inactive) | – | > 100 µM (inactive) | > 100 µM (inactive) | – | > 100 µM (inactive) | > 100 µM (inactive)
11 | Cc1ccc(/C=C/C(=O)c2cccc3ccccc23)cc1 | 18.2 µM (inactive) | 12.7 µM (inactive) | 11.3 µM (inactive) | – | 13.6 µM (inactive) | 18 µM (inactive) | 17.4 µM (inactive) | 17.8 µM (inactive) | > 10 µM (inactive) | 14.5 µM (inactive) | > 10 µM (inactive) | 25 µM (inactive) | 13.2 µM (inactive) | 15 µM (inactive) | 13.4 µM (inactive) | 18.5 µM (inactive) | 24.4 µM (inactive) | 2.49 µM (inactive)
12 | CCCCCC(=O)C(C)C1=Nc2nnc(CCCCCCCc3nnc4n3C(=O)C(C(C)C(=O)CCCCC)=N4)n2C1=O (centres undefined) | > 100 µM (inactive) | > 100 µM (inactive) | > 100 µM (inactive) | > 100 µM (inactive) | > 100 µM (inactive) | > 100 µM (inactive) | > 100 µM (inactive) | > 100 µM (inactive) | > 100 µM (inactive) | > 100 µM (inactive) | > 100 µM (inactive) | > 100 µM (inactive) | > 100 µM (inactive) | > 100 µM (inactive) | > 100 µM (inactive) | > 100 µM (inactive) | > 100 µM (inactive) | > 100 µM (inactive)
13 | CN(C(=O)C12C3C4C5C3C1(C(=O)C13C6C7C8C6C1C8C73)C5C42)C(C)(C)C (centres undefined) | > 37.8 µM (inactive) | > 50 µM (inactive) | > 50 µM (inactive) | > 50 µM (inactive) | 29.2 µM (inactive) | > 50 µM (inactive) | > 50 µM (inactive) | > 50 µM (inactive) | > 50 µM (inactive) | > 50 µM (inactive) | > 21 µM (inactive) | > 50 µM (inactive) | > 50 µM (inactive) | > 50 µM (inactive) | > 50 µM (inactive) | > 50 µM (inactive) | > 50 µM (inactive) | > 27.3 µM (inactive)
14 | CCCN(CCC)C(=O)c1c([N+](=O)[O-])cc(C(F)(F)F)cc1[N+](=O)[O-] | 32.5 µM (inactive) | 26.2 µM (inactive) | 51.3 µM (inactive) | 41.6 µM (inactive) | 52.6 µM (inactive) | > 100 µM (inactive) | 17.9 µM (inactive) | 19.3 µM (inactive) | – | 39.1 µM (inactive) | 35.7 µM (inactive) | > 100 µM (inactive) | 46.1 µM (inactive) | 68.2 µM (inactive) | 14.9 µM (inactive) | > 10 µM (inactive) | > 100 µM (inactive) | 47.6 µM (inactive)
15 | CCc1cccc(NC(=O)c2cc(/C=C/c3ccccc3)nc(S)n2)c1 | > 100 µM (inactive) | > 100 µM (inactive) | > 100 µM (inactive) | > 100 µM (inactive) | > 100 µM (inactive) | > 100 µM (inactive) | > 100 µM (inactive) | > 100 µM (inactive) | > 100 µM (inactive) | > 100 µM (inactive) | – | > 100 µM (inactive) | > 100 µM (inactive) | > 100 µM (inactive) | > 100 µM (inactive) | > 100 µM (inactive) | > 100 µM (inactive) | > 100 µM (inactive)
16 | CC1(C)C(=NNC(=O)C[N+](C)(C)C)C(C)(C)C1=NNC(=O)C[N+](C)(C)C | > 100 µM (inactive) | > 100 µM (inactive) | > 100 µM (inactive) | > 100 µM (inactive) | > 100 µM (inactive) | > 100 µM (inactive) | > 100 µM (inactive) | > 100 µM (inactive) | > 100 µM (inactive) | > 100 µM (inactive) | 72.9 µM (inactive) | > 100 µM (inactive) | > 100 µM (inactive) | > 100 µM (inactive) | > 100 µM (inactive) | > 100 µM (inactive) | > 100 µM (inactive) | –
